The text below walks through data of BindingDB's records for doi:10.1016/j.bmc.2006.07.028 (University of Florence, 2006).

A value given as a limit tells only on which side of the number the result lay.

Experiment [1] addresses T1, Macrophage metalloelastase (Homo sapiens, UniProt P39900). Kind of experiment: Dissociation Constants (KD) Measurements and Enzyme Inhibition Assay (IC50). Particulars: pH 7; 25 °C. The method, then:
The NMR experiments were performed to determine the binding affinity (KD) for the MMP-12 catalytic domain. The alteration of the chemical shifts induced on 2D 1H-15N HSQC upon the titration with the test compound was analyzed. The fit of the experimental data as a function of ligand concentration provided dissociation constant. The inhibition potency (IC50) was measured by fluorescent enzymatic assays. The compounds were evaluated for their ability to inhibit the hydrolysis of fluorescence-quenched peptide substrate. […] Fitting of hydrolysis rate as a function of inhibitor concentration provided IC50.

Experiment [2] concerns the target T1, Macrophage metalloelastase. Kind of experiment: Dissociation Constants (KD) Measurements. To be noted: pH 7.2; 25 °C. The method, then:
The NMR experiments were performed to determine the binding affinity (KD) for the MMP-12 catalytic domain. The alteration of the chemical shifts induced on 2D 1H-15N HSQC upon the titration with the test compound was analyzed. The fit of the experimental data as a function of ligand concentration provided dissociation constant.

The next experiment has as its target Collagenase 3 (Homo sapiens, UniProt P45452). Put plainly: Inhibition Potency Measurements. Particulars: pH 7; 25 °C. Here is the method: (§1) The inhibition potency (IC50) was measured by fluorescent enzymatic assays. The compounds were evaluated for their ability to inhibit the hydrolysis of fluorescence-quenched peptide substrate. […] Fitting of hydrolysis rate as a function of inhibitor concentration provided IC50.

The target in the next experiment is T2, Interstitial collagenase (Homo sapiens, UniProt P03956).
T2 sequence (P03956 whole entry): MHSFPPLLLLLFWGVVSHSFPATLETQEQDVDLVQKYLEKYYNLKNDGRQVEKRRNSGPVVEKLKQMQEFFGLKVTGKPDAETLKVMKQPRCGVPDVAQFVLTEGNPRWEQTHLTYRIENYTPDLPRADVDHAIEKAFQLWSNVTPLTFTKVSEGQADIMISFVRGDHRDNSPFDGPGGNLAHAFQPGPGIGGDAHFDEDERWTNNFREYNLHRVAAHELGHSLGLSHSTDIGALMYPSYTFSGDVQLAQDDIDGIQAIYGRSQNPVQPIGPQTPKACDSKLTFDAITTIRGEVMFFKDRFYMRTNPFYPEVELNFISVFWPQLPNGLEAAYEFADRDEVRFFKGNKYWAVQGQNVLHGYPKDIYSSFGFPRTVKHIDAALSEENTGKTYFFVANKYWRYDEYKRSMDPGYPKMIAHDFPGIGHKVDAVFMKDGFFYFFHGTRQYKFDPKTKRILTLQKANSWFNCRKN
Put plainly: Inhibition Potency Measurements. To be noted: pH 7; 25 °C. Here is the method: as §1

The target of a further experiment is T3, Matrilysin (Homo sapiens, UniProt P09237).
T3 sequence (P09237 whole entry): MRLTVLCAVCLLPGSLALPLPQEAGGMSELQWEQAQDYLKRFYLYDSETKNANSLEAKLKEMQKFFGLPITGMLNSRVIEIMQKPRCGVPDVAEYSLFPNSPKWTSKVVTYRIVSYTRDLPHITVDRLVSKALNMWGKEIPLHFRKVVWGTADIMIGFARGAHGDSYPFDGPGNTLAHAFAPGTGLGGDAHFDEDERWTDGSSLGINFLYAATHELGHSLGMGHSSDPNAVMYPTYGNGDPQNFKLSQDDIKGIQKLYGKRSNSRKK
Put plainly: Inhibition Potency Measurements. To be noted: pH 7; 25 °C. The method, then:
as §1

For a further experiment, the target named is Neutrophil collagenase (Homo sapiens, UniProt P22894). Put plainly: Inhibition Potency Measurements. To be noted: pH 7; 25 °C. The method, then: as §1
In a further experiment the target is Stromelysin-2 (Homo sapiens, UniProt P09238). Put plainly: Inhibition Potency Measurements. To be noted: pH 7; 25 °C. Here is the method:
as §1

By IC50 is commonly meant the concentration that inhibits the measured activity by half. Read a low IC50 as inhibition by little substance. What is called Kd is a measure of binding affinity in units of concentration. A lower Kd goes with tighter binding.

T1 sequence (P39900 whole entry, the tested form may be a part): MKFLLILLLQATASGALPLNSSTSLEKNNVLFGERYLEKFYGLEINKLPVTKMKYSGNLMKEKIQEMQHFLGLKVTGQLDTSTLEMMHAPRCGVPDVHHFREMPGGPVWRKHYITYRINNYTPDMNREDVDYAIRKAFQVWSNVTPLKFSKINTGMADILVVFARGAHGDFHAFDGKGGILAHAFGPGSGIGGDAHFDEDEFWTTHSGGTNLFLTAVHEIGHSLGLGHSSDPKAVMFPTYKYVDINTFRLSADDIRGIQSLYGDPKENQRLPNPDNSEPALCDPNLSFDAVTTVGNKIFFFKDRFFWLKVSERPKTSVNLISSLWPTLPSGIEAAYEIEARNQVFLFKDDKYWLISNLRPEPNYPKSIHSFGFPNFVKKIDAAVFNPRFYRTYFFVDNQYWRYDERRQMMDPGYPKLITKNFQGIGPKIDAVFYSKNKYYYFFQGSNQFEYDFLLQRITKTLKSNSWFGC
Chain of Stromelysin-2 (P09238 whole entry): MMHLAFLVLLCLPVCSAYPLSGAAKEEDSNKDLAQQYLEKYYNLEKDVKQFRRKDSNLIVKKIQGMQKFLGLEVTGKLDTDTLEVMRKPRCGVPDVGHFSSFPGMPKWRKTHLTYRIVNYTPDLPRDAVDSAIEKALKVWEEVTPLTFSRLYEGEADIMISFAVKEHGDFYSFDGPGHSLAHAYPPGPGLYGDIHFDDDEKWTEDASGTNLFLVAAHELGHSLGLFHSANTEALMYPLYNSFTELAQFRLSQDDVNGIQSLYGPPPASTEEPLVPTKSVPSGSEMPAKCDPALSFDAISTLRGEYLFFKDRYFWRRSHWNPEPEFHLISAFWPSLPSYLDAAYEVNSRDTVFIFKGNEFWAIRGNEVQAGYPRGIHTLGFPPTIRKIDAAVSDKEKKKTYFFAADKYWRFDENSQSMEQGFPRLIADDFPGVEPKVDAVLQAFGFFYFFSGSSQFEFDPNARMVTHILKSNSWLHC
Chain of Neutrophil collagenase (P22894 whole entry): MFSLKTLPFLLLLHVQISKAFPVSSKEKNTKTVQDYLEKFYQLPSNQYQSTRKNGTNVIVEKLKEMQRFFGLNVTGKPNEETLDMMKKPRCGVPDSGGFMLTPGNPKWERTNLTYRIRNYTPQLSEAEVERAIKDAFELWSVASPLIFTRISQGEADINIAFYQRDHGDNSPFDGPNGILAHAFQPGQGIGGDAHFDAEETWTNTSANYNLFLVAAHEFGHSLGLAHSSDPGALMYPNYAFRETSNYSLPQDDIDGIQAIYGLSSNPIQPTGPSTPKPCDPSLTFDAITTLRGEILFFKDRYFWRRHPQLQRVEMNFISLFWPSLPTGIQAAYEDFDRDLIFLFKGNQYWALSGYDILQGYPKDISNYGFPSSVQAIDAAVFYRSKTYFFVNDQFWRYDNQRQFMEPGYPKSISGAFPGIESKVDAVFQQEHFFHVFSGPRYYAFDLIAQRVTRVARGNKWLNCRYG

In experiment [1], `O=C(O)[C@@H]1O[C@H]2CN(Cc3ccc(-c4ccccc4)cc3)C(=O)[C@@H]1O2` [(1R,5S,7R)-2-oxo-3-[(4-phenylphenyl)methyl]-6,8-dioxa-3-azabicyclo[3.2.1]octane-7-carboxylic acid] came in with an IC50 of 954 µM and a Kd of more than 1000 µM.
In experiment [2], `O=C(O)[C@@H]1O[C@H]2CN(Cc3ccccc3)C(=O)[C@@H]1O2` [(1R,5S,7R)-3-benzyl-2-oxo-6,8-dioxa-3-azabicyclo[3.2.1]octane-7-carboxylic acid] gave a Kd of more than 10000 µM.
On the same count and under the same terms, with `O=C(NO)[C@@H]1O[C@H]2CN(Cc3ccccc3)C(=O)[C@@H]1O2` [(1R,5S,7R)-3-benzyl-N-hydroxy-2-oxo-6,8-dioxa-3-azabicyclo[3.2.1]octane-7-carboxamide] the figure was more than 10000 µM.
Turning to `O=C(NO)[C@@H]1O[C@H]2CN(Cc3ccc(-c4ccccc4)cc3)C(=O)[C@@H]1O2` [(1R,5S,7R)-N-hydroxy-2-oxo-3-[(4-phenylphenyl)methyl]-6,8-dioxa-3-azabicyclo[3.2.1]octane-7-carboxamide], in experiment [1], the IC50 amounted to 425 µM and the Kd was more than 500 µM.
In the case of `O=C(NCc1ccc(-c2ccccc2)cc1)[C@@H]1O[C@H]2CN(C(=O)NO)C[C@@H]1O2` [(1S,5S,7R)-3-N-hydroxy-7-N-[(4-phenylphenyl)methyl]-6,8-dioxa-3-azabicyclo[3.2.1]octane-3,7-dicarboxamide], the IC50 against Collagenase 3 stood at 778 µM; on Interstitial collagenase, 1180 µM; on Matrilysin, 1510 µM; on Neutrophil collagenase, 513 µM; against Stromelysin-2 it was 865 µM.
In experiment [1], `O=C(O)[C@@H]1O[C@H]2CN(Cc3ccc(-c4ccccc4)cc3)C[C@@H]1O2` [(1S,5S,7R)-3-[(4-phenylphenyl)methyl]-6,8-dioxa-3-azabicyclo[3.2.1]octane-7-carboxylic acid] gave an IC50 of 835 µM and a Kd of more than 1000 µM.
In the case of `O=C(O)[C@@H]1O[C@H]2CN(Cc3ccccc3)C[C@@H]1O2` [(1S,5S,7R)-3-benzyl-6,8-dioxa-3-azabicyclo[3.2.1]octane-7-carboxylic acid], the dissociation constant Kd in experiment [2] is more than 10000 µM.
In experiment [1], `O=C(NO)[C@@H]1O[C@H]2CN(Cc3ccc(-c4ccccc4)cc3)C[C@@H]1O2` [(1S,5S,7R)-N-hydroxy-3-[(4-phenylphenyl)methyl]-6,8-dioxa-3-azabicyclo[3.2.1]octane-7-carboxamide] showed an IC50 of 399 µM and a Kd of more than 500 µM.
In experiment [2], `CCOC(=O)C1CCN(C(=O)NO)CC1` [ethyl 1-(hydroxycarbamoyl)piperidine-4-carboxylate] had a dissociation constant (Kd) of 3400 µM.
